Measured values taken from PubChem BioAssay (NCI).
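A five-concentration, 48-hour dose response in 96-well plates underlies each endpoint, interpolated linearly between surrounding concentrations. Definition used: TGI = concentration required for complete inhibition of growth.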

What was measured:
Test in all cases: growth of human tumour cells (NCI), 48 h
SK-MEL-28 melanoma = system: SK-MEL-28 melanoma
HCT-15 colon = system: HCT-15 colon
ACHN renal = system: ACHN renal
KM12 colon = system: KM12 colon
HCT-116 colon = system: HCT-116 colon
SF-295 CNS = system: SF-295 CNS
NCI-H23 lung = system: NCI-H23 lung
UO-31 renal = system: UO-31 renal
SNB-75 CNS = system: SNB-75 CNS
HL-60(TB) leukemia = system: HL-60(TB) leukemia
IGROV1 ovarian = system: IGROV1 ovarian
SF-268 CNS = system: SF-268 CNS
LOX IMVI melanoma = system: LOX IMVI melanoma
SN12C renal = system: SN12C renal
HOP-92 NSCLC = system: HOP-92 NSCLC
MDA-MB-231 breast = system: MDA-MB-231 breast
OVCAR-8 ovarian = system: OVCAR-8 ovarian
UACC-257 melanoma = system: UACC-257 melanoma
OVCAR-3 ovarian = system: OVCAR-3 ovarian
UACC-62 melanoma = system: UACC-62 melanoma
786-0 renal = system: 786-0 renal
U251 CNS = system: U251 CNS
HOP-62 NSCLC = system: HOP-62 NSCLC
HCC-2998 colon = system: HCC-2998 colon
DU-145 prostate = system: DU-145 prostate
NCI-H460 lung = system: NCI-H460 lung
HT29 colon = system: HT29 colon
SW-620 colon = system: SW-620 colon
HS 578T breast = system: HS 578T breast
MDA-N = system: MDA-N
EKVX NSCLC = system: EKVX NSCLC
NCI/ADR-RES ovarian = system: NCI/ADR-RES ovarian
A549 NSCLC = system: A549 NSCLC
TK-10 renal = system: TK-10 renal
NCI-H226 lung = system: NCI-H226 lung
MDA-MB-435 = system: MDA-MB-435
SR leukemia = system: SR leukemia
MOLT-4 leukemia = system: MOLT-4 leukemia
CCRF-CEM leukemia = system: CCRF-CEM leukemia
M14 melanoma = system: M14 melanoma
CAKI-1 renal = system: CAKI-1 renal
OVCAR-4 ovarian = system: OVCAR-4 ovarian
NCI-H522 lung = system: NCI-H522 lung
RPMI-8226 leukemia = system: RPMI-8226 leukemia
SK-MEL-5 melanoma = system: SK-MEL-5 melanoma
K-562 leukemia = system: K-562 leukemia
BT-549 breast = system: BT-549 breast
COLO 205 colon = system: COLO 205 colon
SK-OV-3 ovarian = system: SK-OV-3 ovarian
T-47D breast = system: T-47D breast
OVCAR-5 ovarian = system: OVCAR-5 ovarian
A498 renal = system: A498 renal
SK-MEL-2 melanoma = system: SK-MEL-2 melanoma
SNB-19 CNS = system: SNB-19 CNS
MALME-3M melanoma = system: MALME-3M melanoma
SF-539 CNS = system: SF-539 CNS
RXF 393 renal = system: RXF 393 renal
PC-3 prostate = system: PC-3 prostate
MCF7 breast = system: MCF7 breast

## COC(=O)[C@@H]1CCc2nc3ccccc3c(=O)n21
SK-MEL-28 melanoma
  TGI: > 100 µM
HCT-15 colon
  TGI: > 100 µM
ACHN renal
  TGI: > 100 µM
KM12 colon
  TGI: > 100 µM
HCT-116 colon
  TGI: > 100 µM
SF-295 CNS
  TGI: > 100 µM
NCI-H23 lung
  TGI: > 100 µM
UO-31 renal
  TGI: > 100 µM
SNB-75 CNS
  TGI: > 100 µM
HL-60(TB) leukemia
  TGI: > 100 µM
IGROV1 ovarian
  TGI: > 100 µM
SF-268 CNS
  TGI: > 100 µM
LOX IMVI melanoma
  TGI: > 100 µM
SN12C renal
  TGI: > 100 µM
HOP-92 NSCLC
  TGI: > 100 µM
MDA-MB-231 breast
  TGI: > 100 µM
OVCAR-8 ovarian
  TGI: > 100 µM
UACC-257 melanoma
  TGI: > 100 µM
OVCAR-3 ovarian
  TGI: > 100 µM
UACC-62 melanoma
  TGI: > 100 µM
786-0 renal
  TGI: > 100 µM
U251 CNS
  TGI: > 100 µM
HOP-62 NSCLC
  TGI: > 100 µM
HCC-2998 colon
  TGI: > 100 µM
DU-145 prostate
  TGI: > 100 µM
NCI-H460 lung
  TGI: > 100 µM
HT29 colon
  TGI: > 100 µM
SW-620 colon
  TGI: > 100 µM
HS 578T breast
  TGI: > 100 µM
MDA-N
  TGI: > 100 µM
EKVX NSCLC
  TGI: > 100 µM
NCI/ADR-RES ovarian
  TGI: > 100 µM
A549 NSCLC
  TGI: > 100 µM
TK-10 renal
  TGI: > 100 µM
NCI-H226 lung
  TGI: > 100 µM
MDA-MB-435
  TGI: > 100 µM
SR leukemia
  TGI: > 100 µM
MOLT-4 leukemia
  TGI: > 100 µM
CCRF-CEM leukemia
  TGI: > 100 µM
M14 melanoma
  TGI: > 100 µM
CAKI-1 renal
  TGI: > 100 µM
OVCAR-4 ovarian
  TGI: > 100 µM
NCI-H522 lung
  TGI: > 100 µM
RPMI-8226 leukemia
  TGI: > 100 µM
SK-MEL-5 melanoma
  TGI: > 100 µM
K-562 leukemia
  TGI: > 100 µM
BT-549 breast
  TGI: > 100 µM
COLO 205 colon
  TGI: > 100 µM
SK-OV-3 ovarian
  TGI: > 100 µM
T-47D breast
  TGI: > 100 µM
OVCAR-5 ovarian
  TGI: > 100 µM
A498 renal
  TGI: > 100 µM
SK-MEL-2 melanoma
  TGI: > 100 µM

## NCCC1([N+](=O)[O-])C=CN=CC1 (centres undefined)
SK-MEL-28 melanoma
  TGI: > 100 µM
HCT-15 colon
  TGI: > 100 µM
ACHN renal
  TGI: > 100 µM
KM12 colon
  TGI: > 100 µM
HCT-116 colon
  TGI: > 100 µM
SF-295 CNS
  TGI: > 100 µM
NCI-H23 lung
  TGI: > 100 µM
UO-31 renal
  TGI: > 100 µM
SNB-75 CNS
  TGI: > 100 µM
HL-60(TB) leukemia
  TGI: > 100 µM
IGROV1 ovarian
  TGI: > 100 µM
SF-268 CNS
  TGI: > 100 µM
SN12C renal
  TGI: > 100 µM
HOP-92 NSCLC
  TGI: 26.8 µM
MDA-MB-231 breast
  TGI: > 100 µM
SNB-19 CNS
  TGI: > 100 µM
OVCAR-8 ovarian
  TGI: > 100 µM
UACC-257 melanoma
  TGI: > 100 µM
UACC-62 melanoma
  TGI: > 100 µM
786-0 renal
  TGI: > 100 µM
U251 CNS
  TGI: > 100 µM
MALME-3M melanoma
  TGI: > 100 µM
DU-145 prostate
  TGI: > 100 µM
NCI-H460 lung
  TGI: > 100 µM
HT29 colon
  TGI: > 100 µM
SW-620 colon
  TGI: > 100 µM
HS 578T breast
  TGI: > 100 µM
MDA-N
  TGI: > 100 µM
EKVX NSCLC
  TGI: > 100 µM
NCI/ADR-RES ovarian
  TGI: > 100 µM
A549 NSCLC
  TGI: > 100 µM
SF-539 CNS
  TGI: > 100 µM
TK-10 renal
  TGI: > 100 µM
NCI-H226 lung
  TGI: > 100 µM
MDA-MB-435
  TGI: > 100 µM
SR leukemia
  TGI: > 100 µM
RXF 393 renal
  TGI: > 100 µM
MOLT-4 leukemia
  TGI: > 100 µM
CCRF-CEM leukemia
  TGI: > 100 µM
M14 melanoma
  TGI: > 100 µM
CAKI-1 renal
  TGI: > 100 µM
OVCAR-4 ovarian
  TGI: > 100 µM
NCI-H522 lung
  TGI: > 100 µM
RPMI-8226 leukemia
  TGI: > 100 µM
SK-MEL-5 melanoma
  TGI: > 100 µM
K-562 leukemia
  TGI: > 100 µM
BT-549 breast
  TGI: > 100 µM
COLO 205 colon
  TGI: > 100 µM
SK-OV-3 ovarian
  TGI: > 100 µM
T-47D breast
  TGI: > 100 µM
OVCAR-5 ovarian
  TGI: > 100 µM
PC-3 prostate
  TGI: > 100 µM
A498 renal
  TGI: > 100 µM
SK-MEL-2 melanoma
  TGI: > 100 µM

## N#CC1=C(N)OC2=C(CCCc3ccc([N+](=O)[O-])cc32)C1c1ccccc1 (centres undefined)
SK-MEL-28 melanoma
  TGI: 22.4 µM
HCT-15 colon
  TGI: 16.7 µM
ACHN renal
  TGI: 45.2 µM
KM12 colon
  TGI: 14.8 µM
HCT-116 colon
  TGI: 16 µM
SF-295 CNS
  TGI: 13.9 µM
NCI-H23 lung
  TGI: 36 µM
UO-31 renal
  TGI: 20.9 µM
SNB-75 CNS
  TGI: > 100 µM
HL-60(TB) leukemia
  TGI: 4.19 µM
IGROV1 ovarian
  TGI: 23.7 µM
SF-268 CNS
  TGI: 21.9 µM
LOX IMVI melanoma
  TGI: 19.6 µM
SN12C renal
  TGI: 20.4 µM
HOP-92 NSCLC
  TGI: 44.9 µM
MDA-MB-231 breast
  TGI: > 100 µM
SNB-19 CNS
  TGI: 45.2 µM
OVCAR-8 ovarian
  TGI: 22.4 µM
UACC-257 melanoma
  TGI: 24.6 µM
OVCAR-3 ovarian
  TGI: 6.33 µM
UACC-62 melanoma
  TGI: 6.12 µM
786-0 renal
  TGI: 26.9 µM
U251 CNS
  TGI: 17.5 µM
MALME-3M melanoma
  TGI: 20.6 µM
HOP-62 NSCLC
  TGI: 17.4 µM
HCC-2998 colon
  TGI: 6.41 µM
DU-145 prostate
  TGI: 15.4 µM
MCF7 breast
  TGI: 15.2 µM
NCI-H460 lung
  TGI: 23.1 µM
HT29 colon
  TGI: 12.2 µM
SW-620 colon
  TGI: 15.7 µM
HS 578T breast
  TGI: > 100 µM
MDA-N
  TGI: 5.38 µM
EKVX NSCLC
  TGI: 35.2 µM
NCI/ADR-RES ovarian
  TGI: 7.45 µM
A549 NSCLC
  TGI: > 100 µM
SF-539 CNS
  TGI: 12.7 µM
TK-10 renal
  TGI: 49.1 µM
NCI-H226 lung
  TGI: 31 µM
SR leukemia
  TGI: 9.56 µM
RXF 393 renal
  TGI: 8.88 µM
MOLT-4 leukemia
  TGI: 18.7 µM
M14 melanoma
  TGI: 12.4 µM
CAKI-1 renal
  TGI: > 100 µM
OVCAR-4 ovarian
  TGI: > 100 µM
NCI-H522 lung
  TGI: 10.9 µM
RPMI-8226 leukemia
  TGI: 10.9 µM
SK-MEL-5 melanoma
  TGI: 13 µM
K-562 leukemia
  TGI: 13.8 µM
BT-549 breast
  TGI: 29.7 µM
COLO 205 colon
  TGI: 13.7 µM
SK-OV-3 ovarian
  TGI: 58.5 µM
T-47D breast
  TGI: 30.5 µM
OVCAR-5 ovarian
  TGI: 43.1 µM
PC-3 prostate
  TGI: 44.7 µM
A498 renal
  TGI: 10.5 µM
SK-MEL-2 melanoma
  TGI: 34.1 µM
